Source: US20210007356A1, “IMIDE DERIVATIVE AND FUNGICIDE CONTAINING SAID DERIVATIVE AS ACTIVE INGREDIENT” (HOKKO CHEMICAL INDUSTRY CO., LTD., priority 2018, published 2021)
Read-outs that look alike come from different tables or passages of the source.

Assays:
[1] = test system: rice sheath blight fungus (Thanatephorus cucumeris); assay: Test Example 8: control effect against rice sheath blight by box treatment (granule); conditions: 5 g of granule on nursery box, paddy rice; inoculated after 3 weeks; 7 days after inoculation
Text: Control value (%)=[1−(lesion height in sprayed plot/lesion height in unsprayed plot)]×100 (d)
From the top of a nursery box, 5 g of a granule prepared according to Formulation Example-4 was applied to a 2.5-leaf-stage paddy rice (variety: Asahi) seedling raised using a nursery box ( 1/10 the area of standard nursery box in size: 12 cm×15 cm×height 4 cm) within a greenhouse. The formulation-treated paddy rice seedling was immediately transplanted at 5 seedlings/pot into a pot ( 1/10000 are in size) filled with paddy soil (flooded). After growing for 3 weeks within a greenhouse, a culture of rice sheath blight fungus (Thanatephorus cucumeris) grown in advance on a rice straw medium was inoculated into the root of the formulation-treated paddy rice, and disease development was promoted in an artificial weather chamber at 26° C. (relative humidity=100%). Seven days after the inoculation, the rice sheath blight lesion height (height from the root) was examined, and the control value (%) was calculated according to formula (d). […] This test was performed with three replications, each consisting of one plot and one pot, per one formulation plot, and its average evaluation value of control effect was determined.

[2] = test system: barley powdery mildew fungus (Erysiphe graminis); assay: Test Example 2: control effect against barley powdery mildew by foliage application; format: in vivo; conditions: wettable powder diluted to 100 ppm, 10 mL per pot foliage spray on barley; inoculated day after; 7 days after inoculation
[3] = test system: rice sheath blight fungus (Thanatephorus cucumeris); assay: Test Example 6: control effect against rice sheath blight by box treatment (flowable formulation); conditions: flowable 5,000 ppm, 50 mL irrigation of nursery box, paddy rice; inoculated after 3 weeks; 7 days after inoculation
[4] = test system: rice blast fungus (Pyricularia grisea); format: in vivo; conditions: flowable 5,000 ppm, 50 mL irrigation of nursery box, paddy rice; inoculated after 3 weeks; 7 days after inoculation
[5] = test system: rice blast fungus (Pyricularia grisea); format: in vivo; conditions: 5 g of granule on nursery box, paddy rice; inoculated after 3 weeks; 7 days after inoculation
[6] = test system: rice blast fungus (Pyricularia grisea); format: in vivo; conditions: flowable 1,000 ppm, 1 mL dripped in paddy water, inoculated after 1 week, 7 days after inoculation
[7] = test system: rice blast fungus (Pyricularia grisea); format: in vivo; conditions: flowable diluted to 100 ppm, 10 mL per pot foliage spray on paddy rice; inoculated day after; 7 days after inoculation
[8] = test system: rice sheath blight fungus (Thanatephorus cucumeris); assay: Test Example 10: control effect against rice sheath blight by water surface application (flowable formulation); conditions: flowable 1,000 ppm, 1 mL dripped in paddy water, inoculated after 1 week, 7 days after inoculation

Row | SMILES | evaluation value of control effect (from control value, lesion height) [1] | evaluation value of control effect (from control value, lesion area percentage) [2] | evaluation value of control effect (from control value, lesion height) [3] | evaluation value of control effect (from control value, number of lesions) [4] | evaluation value of control effect (from control value, number of lesions) [5] | evaluation value of control effect (from control value, number of lesions) [6] | evaluation value of control effect (from control value, number of lesions) [7] | evaluation value of control effect (from control value, lesion height) [8]
1 | Cn1cc(C(=O)N(C(=O)c2snc(Cl)c2Cl)c2ccccc2C2CC2C2CC2)c(C(F)F)n1 (stereo not drawn) [1-29] | 5 | 4 | 5 | 5 | 5 | 5 | 4 | 5
2 | CC(C)CC(C)c1ccccc1N(C(=O)c1cn(C)nc1C(F)F)C(=O)c1snc(Cl)c1Cl (stereo not drawn) [1-35] | 5 | 5 | 5 | 5 | 5 | 5 | 4 | 5
3 | Cc1nnsc1C(=O)N(C(=O)c1cn(C)nc1C(F)F)c1ccccc1C(C)CC(C)C (stereo not drawn) [1-146, N-{3-(Difluoromethyl)-1-methylpyrazole-4-carbonyl}-N-{2-(1,3-dimethylbutyl)phenyl}-4-methylthiadiazole-5-carboxamide] | 5 | 4 | 5 | 5 | 5 | 5 | 4 | 5
4 | CC(C)CC(C)c1ccccc1N(C(=O)c1cn(C)nc1C(F)F)C(=O)c1snnc1C(F)F (stereo not drawn) [1-237] | 5 | 5 | 5 | 5 | 5 | 5 | 4 | 5
5 | Cc1nc(C(F)F)c(C(=O)N(C(=O)c2cn(C)nc2C(F)F)c2ccccc2CCC(C)C)s1 [1-313] | 5 | 4 | 5 | 5 | 5 | 5 | 4 | 5
6 | Cn1cc(C(=O)N(C(=O)c2scnc2C(F)F)c2ccccc2-c2cc(F)c(F)c(F)c2)c(C(F)F)n1 [1-370] | 5 | 4 | 5 | 5 | 5 | 5 | 4 | 5
7 | Cn1cc(C(=O)N(C(=O)c2onc(Cl)c2Cl)c2ccccc2-c2cc(F)c(F)c(F)c2)c(C(F)F)n1 [1-374] | 5 | 4 | 5 | 5 | 5 | 5 | 4 | 5
8 | Cc1nn(C)c(F)c1C(=O)N(C(=O)c1cc(Cl)no1)c1ccccc1C(C)CC(C)C (stereo not drawn) [1-376] | 5 | 4 | 5 | 5 | 5 | 5 | 4 | 5
9 | CC(C)CC(C)c1sccc1N(C(=O)c1cn(C)nc1C(F)F)C(=O)c1snc(Cl)c1Cl (stereo not drawn) [5-5] | 5 | 5 | 5 | 5 | 5 | 5 | 4 | 5
10 | Cc1nnsc1C(=O)N(C(=O)c1cn(C)nc1C(F)F)c1ccsc1C(C)CC(C)C (stereo not drawn) [5-23] | 5 | 5 | 5 | 5 | 5 | 5 | 4 | 5
11 | Cc1cc(C(=O)N(C(=O)c2scnc2C(F)F)c2ccccc2C(C)CC(C)C)sn1 (stereo not drawn) [7-134] | 5 | 4 | 5 | 5 | 5 | 5 | 4 | 5
12 | Cc1nsc(C(=O)N(C(=O)c2scnc2C(F)F)c2ccccc2C(C)CC(C)C)c1Cl (stereo not drawn) [7-141] | 5 | 4 | 5 | 5 | 5 | 5 | 4 | 5
13 | CCc1nc(C(F)F)c(C(=O)N(C(=O)c2sc(C)nc2C(F)F)c2ccccc2C(C)CC(C)C)s1 (stereo not drawn) [7-216] | 5 | 4 | 5 | 5 | 5 | 5 | 4 | 5
14 | Cc1nc(C(F)F)c(C(=O)N(C(=O)c2sc(C)nc2C(F)(F)F)c2ccccc2C(C)CC(C)C)s1 (stereo not drawn) [7-226] | 5 | 4 | 5 | 5 | 5 | 5 | 4 | 5
15 | CC(C)CC(C)c1ccccc1N(C(=O)c1ccccc1C(F)F)C(=O)c1snc(Cl)c1Cl (stereo not drawn) [19-2] |  | 4 |  | 5 | 5 | 5 | 4 | 
16 | Cc1nc(C(F)F)c(C(=O)N(C(=O)c2snnc2C)c2cccc3c2C(C)CC3(C)C)s1 (stereo not drawn) [26-49] |  | 4 |  | 5 | 5 | 5 | 4 | 
17 | CC1OC(C)(C)c2cccc(N(C(=O)c3ccccc3C(F)F)C(=O)c3snc(Cl)c3Cl)c21 (stereo not drawn) [28-4] | 5 |  | 5 | 5 | 5 | 5 | 4 | 5
